Data from the NIST ThermoML archive (doi:10.1016/j.jct.2015.03.023).
Several values for one entry are separate records, joined by “and”; a condition that tells them apart may be missing. Equal entries are not always repeated.

Experiments:
[1] = Liquid; for speed of sound / mass density: 101.33 kPa; for speed of sound: Sing-around technique in a fixed-path interferometer; for mass density: Vibrating tube method; for vapor or sublimation pressure: Ebulliometric method (Recirculating still)
[2] = refractive index (Na D-line) (dimensionless); conditions: 101.33 kPa, Liquid, Standard Abbe refractometry
[3] = refractive index (Na D-line) (dimensionless); xn = mol fraction of the nth substance listed; conditions: 101.22 kPa, Liquid, Standard Abbe refractometry

CCCCn1cc[n+](C)c1.[I-] [1-butyl-3-methylimidazolium iodide]
Conditions | mass density, 293.15 K [kg/m3] | mass density, 298.15 K [kg/m3] | mass density, 308.15 K [kg/m3] | refractive index, 293.15 K | refractive index, 298.15 K | refractive index, 308.15 K | speed of sound, 293.15 K [m/s] | speed of sound, 298.15 K [m/s] | speed of sound, 308.15 K [m/s]
[1] | 1483.5 | 1479.6 | 1471.7 | – | – | – | 1508.1 | 1497.5 | 1473.3
[2] | – | – | – | 1.5825 | 1.581 | 1.5781 | – | – | –

CCCCn1cc[n+](C)c1.[I-] [1-butyl-3-methylimidazolium iodide] + CCCCO
refractive index, [3]
Conditions | x1 = 0.108 | x1 = 0.171 | x1 = 0.311 | x1 = 0.381 | x1 = 0.51 | x1 = 0.574 | x1 = 0.623 | x1 = 0.802 | x1 = 0.85 | x1 = 1
293.15 K | – | – | 1.4864 | 1.5007 | 1.5237 | 1.5339 | 1.541 | 1.5634 | 1.5686 | 1.5825
298.15 K | 1.4332 | 1.4508 | 1.4848 | 1.4991 | 1.5221 | 1.5322 | 1.5393 | 1.5618 | 1.567 | 1.581
308.15 K | 1.4294 | 1.4472 | 1.4815 | 1.4958 | 1.5189 | 1.5289 | 1.5361 | 1.5587 | 1.5639 | 1.5781

CCCCO [butan-1-ol]
Conditions | mass density, [1] [kg/m3] | refractive index, [2] | speed of sound, [1] [m/s] | vapor or sublimation pressure, [1] [kPa]
293.15 K | 809.8 | 1.3992 and 1.3993 | 1256.3 | –
298.15 K | 805.9 | 1.3973 | 1239.5 | –
308.15 K | 798.2 | 1.3932 | 1205.9 | –
353.15 K | – | – | – | 21.19
363.15 K | – | – | – | 33.8
373.15 K | – | – | – | 51.73

CCCCO [butan-1-ol] + CCCCn1cc[n+](C)c1.[I-]
[3], x2 = 0
Conditions | refractive index
293.15 K | 1.3992
298.15 K | 1.3973
308.15 K | 1.3932
